# Experimental data taken from article PMC6081404, “Active Transport of Peptides Across the Intact Human Tympanic Membrane” (Scientific Reports, 2018).
# System: rat TM fragment
# Experiment: Integrity of the TM fragment and seal, trypan-blue dye transit into the lower chamber
# Format: in vitro ADME
# Conditions: 0.5% trypan-blue in upper chamber, immediately and after 1–4 hours, visual and absorbance at 590 nm
# From the text: Rat TMs were interposed between the two chambers.
compound,measurement,value
Cc1cc(-c2ccc(/N=N/c3c(S(=O)(=O)O)cc4cc(S(=O)(=O)O)cc(N)c4c3O)c(C)c2)ccc1/N=N/c1c(S(=O)(=O)O)cc2cc(S(=O)(=O)O)cc(N)c2c1O [trypan-blue],dye transit into the lower chamber across an intact TM fragment,excluded from the lower chamber
